Measured values reported in patent publication US8193245B2, “Composition comprising oleic acid and the use thereof” (University-Industry Cooperation Group of Kyung Hee …, priority 2005, dated 2012).

Legend:
Sprague-Dawley rats = assay: Acute toxicity test on Sprague-Dawley rats; format: in vivo
Procedure: (§1) The acute toxicity tests on ICR mice (mean body weight 25±5 g) and Sprague-Dawley rats (300±10 g, Jung-Ang Lab Animal Inc.) were performed using the oleic acid of the Example 1. Four group consisting of 10 mice or rats was administrated orally with 100 mg/kg, 250 mg/kg, 500 mg/kg and 1000 mg/kg of test sample or solvents (0.2[…], i.p.) respectively and observed for 2 weeks.
(§2) The acute toxicity tests on ICR mice and Sprague-Dawley rats were performed using the extract of the Example 1. Four group consisting of 10 mice or rats was administrated intraperitoneally with 25 mg/kg, 50 mg/kg, 100 mg/kg and 200 mg/kg of test sample or solvents (0.2[…], i.p.), respectively and observed for 24 hours.

[1] = tested on: neuronal cell injury caused by focal cerebral ischemia; assay: Neuroprotective activity, middle cerebral artery occlusion (intraluminal suture) with TTC staining; format: in vivo, Sprague-Dawley rats
ICR mice = assay: Acute toxicity test on ICR mice; format: in vivo
Procedure: as §1, §2

[2] = intraperitoneally 25, 50, 100 and 200 mg/kg, observed for 24 hours
[3] = orally 100, 250, 500 and 1000 mg/kg, observed for 2 weeks

In the case of `CCCCCCCC/C=C\CCCCCCCC(=O)O` [oleic acid, Cis-9-octadecenoic acid], the “treatment-related effects on mortality, clinical signs, body weight changes and gross findings” value (Sprague-Dawley rats; [2]) is reported as “no treatment-related effects”, the “treatment-related effects on mortality, clinical signs, body weight changes and gross findings” value (Sprague-Dawley rats; [3]) is reported as “no treatment-related effects” and the “staining area with TTC (white) versus control group” value ([1]; 1 mg/kg, 10 mg/kg, 100 mg/kg, 2 h MCA occlusion, 24 hours after reperfusion, FIG. 1) is reported as “smaller staining area with TTC (white) due to little damage of neuronal cell than control group”. The “protective effect on neuronal cell death compared with control group” value ([1]; group C: 10 mg/kg) was 32.9%, the “protective effect on neuronal cell death compared with control group” value ([1]; group D: 100 mg/kg) was 64.9% and the “treatment-related effects on mortality, clinical signs, body weight changes and gross findings” value (ICR mice; [2]) was “no treatment-related effects”. For the same molecule, the “treatment-related effects on mortality, clinical signs, body weight changes and gross findings” value (ICR mice; [3]) was “no treatment-related effects”.
